In patent publication US20220241378A1, “COMPOSITIONS AND METHODS FOR TREATMENT OF CHRONIC GRANULOMATOUS DISEASE” (priority 2019, published 2022):

Test system: C57BL/6 and p47phox-/- mice infected intranasally with A. fumigatus conidia
Experiment: Lung inflammation model: C57BL/6 and p47phox-/- mice infected intranasally with A. fumigatus
Assay type: in vivo
Details: p47phox-/- aspergillosis mice
Experimental: In vivo models mimicking human pathology such as lung and gut inflammation were prepared. A model of lung inflammation was tested using C57BL/6 and p47phox-/- mice. The mice were infected with A. fumigatus intranasally and treated them with Tβ4 for 7 consecutive days starting a week after the infection. LC3-II (FIG. 1F) and DAPK1 (FIG. 1G) expression were both defective in p47phox-/- mice, but restored by Tβ4 and ablated (LC3-II) upon siTβ4 (FIGS. 10A and 10B). In addition, gut inflammation was tested using the same mouse model. Acute colitis in p47phox-/- mice was initiated by administering […] in drinking water for 7 days followed by 7 days of DSS-free autoclaved water. Subsequently, Tβ4 was therapeutically administered daily for 7 days, after DSS treatment, at the time at which mice started to lose weight. Consistent with previous findings (de Luca et al., 2014), LC3-II (FIG. 1H) and DAPK1 (FIG. 1I) expression were both defective in the colon ofp47phox-/- mice with colitis as opposed to WT mice but restored upon treatment with T134 (FIGS. 1H and 1I). DAPK1 expression in colon lysates of C57BL/6 and p47^phox-/- mice subjected to DSS-induced colitis for a week and treated intraperitoneally with 5 mg/kg Tβ4 for 7 consecutive days after DSS treatment, n=6-10 mice per group. Data are presented as mean ±SD and are representative of two experiments. Mice were categorized as Naive (uninfected or untreated mice) or None (infected mice). For immunoblotting, normalization was performed on mouse β-actin or Gapdh and corresponding pixel density or ratio is depicted. For immunofluorescence, nuclei were counterstained with DAPI. Photographs were taken with a high-resolution microscope (Olympus BX51), 40× and 100× magnification. LC3 mean fluorescence intensity (MFI) was measured with the ImageJ software. In FIGS. 1F-1H, n=6-10 mice per group. Data are presented as mean ±SD and are representative of two experiments. Naïve, uninfected or untreated mice. None, infected mice.
Viable conidia from the A. fumigatus Af293 strain were obtained as described (De Luca et al., 2012). Mice were anesthetized in a plastic cage by inhalation of 3% isoflurane (Forane Abbot) in oxygen before intranasal instillation of 2×10^7 resting conidia/20 μl saline. For survival curves, p47^phox-/- mice were challenged with […] conidia/20 μl saline. Tβ4 was administered intraperitoneally (i.p.) at the dose of 5 mg/kg at an effective dose as described (Badamchian et al., Thymosin beta(4) reduces lethality and down-regulates inflammatory mediators in endotoxin-induced septic shock. Int Immunopharmacol, 2003 3(8): p. 1225-33), every day in concomitance with (days 0→7) or after (days 7→14) infection. DMOG (Merck Millipore) was administered i.p. at the dose of 8 mg/mouse concomitantly to the infection. For Hif1a silencing, each mouse received intranasal administration of 10 mg/kg unmodified siRNA [Duplex name mm.Ri.Hif1a.13.1 (IDT); 5′-[…]-3′; 3′-[…] -5′] and Tmsb4x silencing [Duplex name mm.Ri.Tmsb4x.13.1; 5′-[…]-3′; 3′-[…] -5′], or equivalent dose of nonspecific control siRNA duplex in a volume of 20 μl of duplex buffer (IDT). Intranasal siRNA was given once the day before infection and 1, 3 and 5 days after infection (Iannitti et al., 2013 Hypoxia promotes danger-mediated inflammation via receptor for advanced glycation end products in cystic fibrosis. Am J Respir Crit Care Med 188:1338-1350). It is known that lung-specific siRNA delivery can be achieved by intranasal administration without the use of viral vectors or transfection agents in vivo (Iannitti et al., 2013 Th17/Treg imbalance in murine cystic fibrosis is linked to indoleamine 2,3-dioxygenase deficiency but corrected by kynurenines. Am J Respir Crit Care Med 187:609-620). Mice were sacrificed 7 or 14 days post infection. Fungal burden was determined by qPCR and expressed as conidial equivalents (CE). Lung tissue was aseptically removed and homogenized in 3 ml of sterile saline. […]

COC(=O)CNC(=O)C(=O)OC [DMOG, dimethyloxalylglycine, reference compound]
fungal burden (DMOG for 5 days (FIG. 7A)): reduced
lung pathology (DMOG for 5 days (FIG. 7B)): ameliorated
HIF-1α expression (DMOG for 5 days (FIG. 7C)): increased
HIF-1α-responsive genes (DMOG for 5 days (FIG. 7D)): up-regulated
